Measured values as given in patent US20260356814A1, “INDOLINE DERIVATIVES AS SEROTONERGIC AGENTS USEFUL FOR THE TREATMENT OF DISORDERS RELATED THERETO” (MINDSET PHARMA INC., priority 2022, published 2026).
“Also recorded” adds a separate entry of the source.

Legend:
[1] = Plasma stability, human; type: in vitro ADME; details: 37° C.
Experimental: (§1) • a. […] The final concentration of organic solvents was 0.5%. The assay was performed in duplicated. • b.
(§2) All calculations were carried out using Microsoft Excel.

[2] = Plasma stability, mouse; type: in vitro ADME; details: 37° C.
Experimental: as §1, §2

[3] = target: T1, human 5-HT2A (h5-HT2A) receptor (Homo sapiens, UniProt P28223); assay: FLIPR assay: human 5-HT2A (agonist mode); type: cell-based; details: @10 μM (head); footnote: curve fitting with activation (%) @ 10 mM with RFU; RFU=Fmax−Fmin
T1 construct: expressed in transfected cells; host or cells: HEK293 (HTR2A&Ga15-HEK293, tetracycline-induced)
Experimental: Assessment of the effect of exemplary compounds of Formula I targeting on human 5-HT2A (h5-HT2A) receptor under agonist mode.
HTR2A&Ga15-HEK293 cells were cultured in DMEM medium containing 10% dialyzed FBS and 1x penicillin-streptomycin, 100 μg/mL Hygromycin B and 300 μg/mL G418. The cells were passaged about three times a week, maintained between ~30% to ~90% confluence.
• 1. The cell culture medium (DMEM medium containing 10% dialyzed FBS and 1× penicillin-streptomycin, 100 μg/mL Hygromycin B and 300 μg/mL G418), TrypLE™ Express and DPBS to R.T. was warmed in advance. • 2. For induction, 1 μg/ml tetracycline (final concentration) was added to cell culture medium and incubated for 48 hours prior to seeding cells into plate at 37° C., 5% (v/v) CO2. The cell culture medium was removed from flask. Cells were washed with DPBS. • 3. 2 mL TrypLE™ Express was added to the flask, mixed well by gentle shaking and cells were incubated at 37° C. for a few minutes. • The cells were checked for morphological change under microscope, the digestion was stopped by adding 4 mL cell culture medium to the flask when most of cells turned to round. • 5. The cell suspension was transferred into a 15 mL centrifuge tube, and then centrifuged at 1,200 rpm for 5 minutes. • 6. The supernatant was removed. The cell pellet was resuspended with 2 mL cell culture medium. • 7. The cell density was counted using cell counter. Only cells with >85% viability were used for the assay. • 8. Cells were diluted to 6.67×10^5/mL with cell culture medium. • 9. 30 μL/well cell suspensions added into a 384-well cell plate (The cell density was 20,000 cells/well). • 10. The cell plate was incubated overnight at 37° C., 5% (v/v) CO2. 2.3 Cell handling • 1. On the day of experiments, culture medium was removed from the cell plate. • 2. 10 μL of assay buffer (20 mM HEPES, in 1×HBSS, pH 7.4) was added to each well of the cell plate. • 3. 2×dye solution was prepared following the manual of the FLIPR® Calcium 6 Assay Kit: • i. The dye was diluted with assay buffer. • ii. Probenecid was added to the final concentration of 5 mM. • iii. Vortexed vigorously for 1-2 minutes. • 4. 10 μL of 2× dye solution was added to each well of the cell plate • 5. The cell plate was placed on plate shaker, followed by shaking at 600 rpm for 2 minutes. • 6. The plate was incubated at 37° C. for 2 hours followed by an additional 15-minute incubation at 25° C. 2.4 Prepare 3×compound • 1. Serotonin HCl was prepared to the concentration of 10 mM with DMSO. • 2. The test compounds were prepared to the concentration of 10 mM with DMSO. • 3. The compounds were added to a 384-well compound source plate. • 4. 3-folds serial dilutions were performed with DMSO. • 5. 90 nL/well of serial diluted compounds was transferred from source plate to a 384-well compound plate by using an Echo. • 6. 30 μL/well of assay buffer (20 mM HEPES in 1x HBSS, pH 7.4) was added to the compound plate. • 7. The plate was mixed on-plate shaker for 2 minutes.
• 1. After the cells were incubated with dye solution, the cell plate, compound plate containing 3×compounds and FLIPR tips were placed into FLIPR. • 2. 10 μL of 3×compounds transferred from the compound plate to the cell plate by FLIPR. • 3. The plate was read for 160 sec with 1 sec interval and the data of agonist mode was obtained.
(§3) • 1. The normalized fluorescence reading (RFU) was calculated as shown below, wherein Fmax and Fmin stand for maximum and minimum of calcium signal during defined time window:
RFU=Fmax−Fmin • 2. EC50 by fitting RFU against log of compound concentrations with Hill equation was calculated using XLfit.
The following procedure can also be followed: • 1. Cells are cultured in cell culture medium (DMEM containing 10% FBS, 1× penicillin-streptomycin 300 μg/ml G418 and 100 μg/ml hygromycin B) at 37° C., 5% (v/V) CO2. • 2. One day before the assays, the cells are detached using TrypLE™ Express and cells are counted using cell counter.

[4] = target: human 5-HT2A receptor (Homo sapiens, UniProt P28223); assay: Human 5-HT2A: Radioligand binding assay ([3H]-ketanserin); details: [3H]-ketanserin displacement, 27° C., 90 min, pH 7.4; read-out: h5-HT2A, IC50
Experimental: Exemplary compounds of Formula I were evaluated functionally using FLIPR assay for their effect on h5-HT2A receptor under agonist mode. The objective of this study was to evaluate the binding properties of exemplary compounds of Formula I on 5-hydroxytryptamine receptor 2A (5-HT2A). • Human 5-HT2A: Radioligand binding assay:
• i. The assay buffer was prepared following the table below.
• Adjust pH to 7.4 followed by […] sterile filtration • ii. 8 doses of reference and test compounds starting from 10 mM stock solution as required was prepared by 5-fold serial dilutions with 100% (v/v) DMSO. • iii. UniFilter-96 GF/B plate was pretreated: • a. 50 μl/well of 0.5% (v/v) PEI was added to UniFilter-96 […] plates. The plates were sealed and incubated at 4° C. for 3 hrs. • b. After incubation, the plates were washed 3 times with ice-cold wash buffer (50 mM Tris, pH7.4). • iv. The assay plate was prepared: • a. Cell membrane was diluted with assay buffer and 330 μl/well was added to 96 round deep well plates to reach a concentration of 20 μg/well. • b. 8 concentrations of reference or test compounds were prepared and 110 μl/well was added to 96 round deep well plates. • c. [3H]-ketanserin was diluted with assay buffer to 5 nM (5X final concentration) and 110 μl/well was added to 96 round deep well plates. • v. The plate was centrifuged at 1000 rpm for 30 secs and then agitated at 600 rpm, R.T. for 5 min. • vi. The plates were sealed and the plate incubated at 27° C. for 90 min. • vii. The incubation was stopped by vacuum filtration onto GF/B filter plates followed by 4 times washing with ice-cold wash buffer (50 mM Tris, pH7.4). • viii. The plates were dried at 37° C. for 45 min. • ix. The filter plates were sealed and 40 μl/well of scintillation cocktail was added. • x. The plate was read by using a Microbeta2 microplate counter.
• 1. For reference and test compounds, the results were expressed as % Inhibition, using the normalization equation: N=100−100×(U−C2)/(C1-C2), where U is the unknown value, C1 is the average of high controls, and C2 is the average of low controls. • 2. The IC50 was determined by fitting percentage of inhibition as a function of compound concentrations with Hill equation using XLfit.

[5] = test system: 5-HT2 receptor; details: daily administration; cited from earlier work
[6] = test system: brain's default mode network; details: intravenously administered; cited from earlier work
[7] = test system: depression and anxiety associated with life-threatening disease; details: in a supportive setting; cited from earlier work
[8] = Plasma stability, rat; type: in vitro ADME; details: 37° C.
Experimental: as §1, §2

[9] = target: T2, human 5-HT1A receptor (Homo sapiens, UniProt P08908); assay: Human 5-HT1A: Functional FLIPR assay (agonist mode); type: cell-based; details: @10 μM (head); footnote: curve fitting with activation (%) @ 10 mM with RFU; RFU=Fmax−Fmin
T2 construct: expressed in transfected cells; host or cells: CHO (HTR1A&Ga15-CHO)
T2 sequence (P08908 1-422): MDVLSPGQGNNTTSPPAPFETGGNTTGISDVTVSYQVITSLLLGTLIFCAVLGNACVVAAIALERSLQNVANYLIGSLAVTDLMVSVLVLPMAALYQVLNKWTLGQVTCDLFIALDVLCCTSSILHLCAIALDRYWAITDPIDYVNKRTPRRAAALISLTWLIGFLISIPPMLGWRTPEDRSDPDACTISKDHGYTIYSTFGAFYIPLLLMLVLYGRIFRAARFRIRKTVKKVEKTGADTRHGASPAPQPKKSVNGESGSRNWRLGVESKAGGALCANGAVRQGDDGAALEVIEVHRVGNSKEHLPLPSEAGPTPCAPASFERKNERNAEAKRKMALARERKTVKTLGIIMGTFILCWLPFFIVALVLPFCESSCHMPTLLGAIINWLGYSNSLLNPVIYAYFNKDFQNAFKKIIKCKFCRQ
Experimental: The potential excitatory effects of compounds targeting on 5-hydroxytryptamine receptor 1A (5-HT1A) under agonist mode was assessed.
HTR1A&Ga15-CHO cells were cultured in DMEM/F12 medium containing 10% dialyzed FBS, 1x penicillin-streptomycin and 600 μg/mL Hygromycin B. The cells were passaged about three times a week, maintained between ~30% to ~90% confluence.
• 1. The cell culture medium (DMEM/F12 medium containing 10% dialyzed FBS, 1x penicillin-streptomycin and 600 μg/mL Hygromycin B), TrypLE™ Express and DPBS was warmed to R.T. in advance. • 2. The cell culture medium was removed from flask. Washed cells with DPBS. • 3. 1 mL TrypLE™ Express was added to the flask, mixed well by gentle shaking and cells were incubated at 37° C. for a few minutes. • 4. The cells were checked for morphological change under microscope, the digestion was stopped by adding 2 mL cell culture medium to the flask when most of cells turned to round. • 5. The cell suspension was transferred into a 15 mL centrifuge tube, and then centrifuged at 1,200 rpm for 5 minutes. • 6. The supernatant was removed. The cell pellet were resuspended with 2 mL cell culture medium. • 7. The cell density were counted using cell counter. Only cells with >85% viability were used for the assay. • 8. Cells were diluted to 4×10^5/mL with cell culture medium. • 9. 30 μL/well cell suspensions were added into a 384-well cell plate (The cell density was 12,000 cells/well). • 10. The cell plate was incubated overnight at 37° C., 5% (v/v) CO2.
• 1. On the day of experiments, culture medium was removed from the cell plate. • 2. 10 μL of assay buffer (20 mM HEPES, in 1×HBSS, pH 7.4) was added to each well of the cell plate. • 3. 2× dye solution was prepared following the manufacture's instruction of the FLIPR® Calcium 6 assay kit: • i. The dye was diluted with assay buffer. • ii. probenecid was added to the final concentration of 5 mM. • iii. Vortexed vigorously for 1-2 minutes, adjust pH to 7.4. • 4. 10 μL of 2×dye solution was added to each well of the cell plate. • 5. The cell plate was placed on plate shaker, followed by shaking at 600 rpm for 2 minutes. • 6. The plate was incubated at 37° C. for 2 hours followed by an additional 15-minute incubation at 25° C. 3.4 Prepare 3×compounds. • 1. Serotonin was prepared to the concentration of 10 mM with DMSO, 3-folds serial dilutions were performed with DMSO. • 2. Prepare the test compound to the concentration of 10 mM with DMSO, preform 3-folds serial dilutions with DMSO. • 3. The compounds were added to a 384-well compound source plate. • 4. 90 nL/well of serial diluted compounds were transferred from source plate to a 384-well compound plate by using an Echo. • 5. 30 μL/well of assay buffer was added to the compound plate. • 6. The plate was mixed on-plate shaker for 2 minutes. 3.5 FLIPR assay • 1. After the cells incubate with dye solution, the cell plate, compound plate containing 3×compounds and FLIPR tips were placed into FLIPR. • 2. 10 μL of 3×compounds were transferred from the compound plate to the cell plate by FLIPR. • 3. The plate was read for 160 sec with 1 sec interval to obtain the data of agonist mode.
as §3
RFU=Fmax−Fmin • 2. EC50 was calculated by fitting RFU against log of compound concentrations with Hill equation using XLfit.

[10] = 30 min, read-out: Remaining Percentage (%), 30 min
[11] = 60 min, read-out: Remaining Percentage (%), 60 min
[12] = >255.85 if remaining at 60 min greater than 85%

Sequence of human 5-HT2A receptor (P28223 whole entry): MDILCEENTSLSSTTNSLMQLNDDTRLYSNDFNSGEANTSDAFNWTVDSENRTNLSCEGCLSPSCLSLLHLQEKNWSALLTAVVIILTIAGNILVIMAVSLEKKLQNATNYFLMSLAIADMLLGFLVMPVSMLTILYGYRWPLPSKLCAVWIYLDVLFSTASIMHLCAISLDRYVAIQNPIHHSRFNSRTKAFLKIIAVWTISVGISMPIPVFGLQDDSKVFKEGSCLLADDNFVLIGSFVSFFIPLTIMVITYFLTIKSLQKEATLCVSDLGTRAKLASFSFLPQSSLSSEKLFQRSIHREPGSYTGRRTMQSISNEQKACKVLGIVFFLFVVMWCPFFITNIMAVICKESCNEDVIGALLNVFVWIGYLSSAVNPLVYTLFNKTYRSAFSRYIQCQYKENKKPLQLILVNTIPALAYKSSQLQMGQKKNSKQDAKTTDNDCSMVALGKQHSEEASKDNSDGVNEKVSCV
T1 sequence (P28223 whole entry): as above

**Q.** What does the source list for `CC(C)[N+](C)(CCOC(=O)C1c2ccccc2Oc2ccccc21)C(C)C` [Propantheline, reference compound]?
**A.** Remaining Percentage (%), 0 min ([1]; 0 min): 100.00%; remaining at 0.5 h [1, 10]: 29%; remaining at 1 h [1, 11]: 2.58%; half-life [1, 12]: 11.4 min; Remaining Percentage (%), 0 min ([2]; 0 min): 100.00%; remaining at 0.5 h [2, 10]: 61.6%; half-life [2, 12]: 37.1 min

**Q.** Which results are given for `COc1ccc2c(c1)N(C[C@@H]1CCCN1C)CC2` [(S)-I-58, (S)-6-Methoxy-1-((1-methylpyrrolidin-2-yl)methyl) indoline]?
**A.** RFU@10 μM [3]: 203 RFU; IC50 [4]: > 30 µM

**Q.** Which “5-HT2 receptor density in rat brain” value [5] does the source give for `CCN(CC)C(=O)[C@@H]1C=C2c3cccc4[nH]cc(c34)C[C@H]2N(C)C1` [LSD] here?
**A.** selectively decreased 5-HT2 receptor density in the rat brain; also recorded: reduce 5-HT2 receptor density in rat brain

**Q.** What about the “oscillatory power in areas of the brain's default mode network” value [6] of the same compound?
**A.** decreases in oscillatory power in areas of the brain's default mode network

**Q.** What about the “anti-depressant and anxiolytic effects” value [7] of the same compound?
**A.** significant and sustained anti-depressant and anxiolytic effects

**Q.** With `CC[C@H](C)C(=O)O[C@H]1C[C@@H](C)C=C2C=C[C@H](C)[C@H](CC[C@@H]3C[C@@H](O)CC(=O)O3)[C@H]21` [Lovastatin, reference compound] as the compound, how does the “Remaining Percentage (%), 0 min” value ([8]; 0 min) read?
**A.** 100.00%

**Q.** And the remaining at 0.5 h [8, 10]?
**A.** 0.61%

**Q.** What about the remaining at 1 h [8, 11] of the same compound?
**A.** 0.33%

**Q.** With `CN(C)CCc1c[nH]c2cccc(O)c12` [Psilocin, 4-hydroxy-N,N-dimethyltryptamine, reference compound] as the compound, how does the “RFU@10 μM” value [9] read?
**A.** 140 RFU
